# In patent US20140350273A1, “PEDIATRIC USES OF CABAZITAXEL” (AVENTIS PHARMA S.A., priority 2012, published 2014):
# Read-outs that look alike come from different tables or passages of the source.
# System: human Ewing's sarcoma SK-ES-1
# Type: in vivo
# Parameters: Tumor volume changes from baseline: Median (nMad): unit not given here
# Method: This efficacy may be quantified, for example, as changes in tumor volume for each treated (T) and control (C) group, which are calculated for each animal and each day by subtracting the tumor volume on the day of first treatment (staging day) from the tumor volume on the specified observation day. This allows calculating the tumor growth inhibition: ΔT/ΔC=(median delta T/median delta C)×100. Individual tumor volume changes from baseline are thereafter analyzed by a non-parametric two-way ANOVA-TYPE (with factors: group and repeated days) followed by a post-hoc contrasts analysis, with Bonferroni-Holm adjustment for multiplicity, comparing all treated groups to the control group. […] A probability less than 5% (p<0.05) was considered as significant.
# Based on the National Cancer Institute (NCl) standards, a ΔT/ΔC≦40% is the minimal level required to declare activity.
# The tumor doubling time (in days; Td) was estimated from the plot of the log linear growth of the control group tumors in exponential growth (100 to 1000 mm^3 range) [T. H. Corbett et al., Cancer, 40: 2660-2680 (1977); F. M. Schabel et al., Cancer Drug Development, Part B, Methods in Cancer Research, 17: 3-51, New York, Academic Press Inc. (1979)].
# This efficacy may also be quantified by the number of tumor regressions observed after therapy. Individual mice reporting a tumor volume ≦50% of the Day 0 measurement for two consecutive measurements over a seven day period were considered partial responders (PR). Individual mice lacking palpable tumors (<4×4 mm^2 for two consecutive measurements over a seven day period) were classified as complete responders (CR); a CR that persisted until study completion was considered a tumor-free survivor (TFS).
# The efficacy of cabazitaxel in comparison with docetaxel on pediatric solid tumors was determined experimentally in the following manner:
# The animals subjected to the experiment are subcutaneously grafted unilaterally with approximately 30 mg of a tumor fragment on day 0. The animals are implanted with a human tumor xenografted in immunocompromized mice. Several days post tumor implantation, mice are randomized according to their body weight to the different groups of treatments and controls. The animals are observed every day. The different animal groups are weighed daily during treatment until the maximum weight loss is reached and subsequent full weight recovery has occurred. The groups are then weighed once or twice a week until the end of the trial.
# The tumors are measured 1 to 5 times a week, depending on the tumor doubling time, until the tumor reaches approximately 1,000 mm^3, or until the animal dies (if this occurs before the tumor reaches 1,000 mm^3). The animals are necropsied immediately after euthanasia or death.
# The selected tumor model was a human Ewing's sarcoma SK-ES-1, xenografted in SCID mice [Fogh J. New York: Plenum Press, 1975].
# Cabazitaxel and docetaxel were weighed for each treatment and dissolved in ethanol. Treatment solutions were prepared first by mixing 1 volume of ethanolic stock solution and 1 volume of polysorbate 80, then by adding 18 volumes of glucose 5% in water.
# The Td in days was estimated from the plot of the log linear growth of the control group tumors in exponential growth (100 to 1,000 mm^3 range) and the number of tumor regressions observed after therapy.
# The following end points have been used: • Toxicity was declared at dosages inducing ≧20% body weight loss or ≧10% drug death; • Relative tumor growth inhibition was determined on day 22 post tumor implantation when the median tumor size in the control group was 456 mm^3; • Antitumor efficacy was determined by calculating the ΔT/ΔC value in percent, according to the above-mentioned formula; • Tumor regressions (as explained above); • Statistical analysis performed (as explained above).
# [1] = 3.5 mg/kg per injection (total 7.0) IV days 15; 19
# [2] = 5.6 mg/kg per injection (total 11.2) IV days 15; 19
# [3] = 5.6 mg/kg per injection (total 11.2) IV days 15; 19; listed as CABAZITAXEL
# [4] = 9.0 mg/kg per injection (total 18) IV days 15; 19
# [5] = 9.0 mg/kg per injection (total 18) IV days 15; 19; listed as CABAZITAXEL
# [6] = 14.5 mg/kg per injection (total 29) IV days 15; 19
# [7] = 14.5 mg/kg per injection (total 29) IV days 15; 19; listed as CABAZITAXEL
smiles,measurement,setting,value
"CO[C@H]1C(=O)[C@]2(C)[C@@H](OC)C[C@H]3OC[C@@]3(OC(C)=O)[C@H]2[C@H](OC(=O)c2ccccc2)[C@]2(O)C[C@H](OC(=O)[C@H](O)[C@@H](NC(=O)OC(C)(C)C)c3ccccc3)C(C)=C1C2(C)C [Cabazitaxel, 4α-acetoxy-2α-benzoyloxy-5β,20-epoxy-1β-hydroxy-7β,10β-dimethoxy-9-oxo-11-taxen-13α-yl (2R,3S)-3-tert-butoxycarbonyl-amino-2-hydroxy-3-phenylpropionate]",Average body weight change in % per mouse at nadir,[1],−4.4%
same,Biological interpretation,[1],active
same,Drug death,[1],0/7
same,Regressions Complete,[1],0/7
same,Regressions Partial,[1],0/7
same,Tumor free survivors at day 120,[1],0/7
same,day of nadir,[1],16 days
same,ΔT/ΔC in % (day 22),[1],22%
same,Biological interpretation,3.5 mg/kg per injection (total 7.0) IV days 15; 19; listed as CABAZITAXEL,Active
same,Tumor volume changes from baseline: Median (nMad),"3.5 mg/kg, day 19",32
same,Tumor volume changes from baseline: Median (nMad),"3.5 mg/kg, day 22",41
same,Tumor volume changes from baseline: Median (nMad),"3.5 mg/kg, day 25",180
same,Tumor volume changes from baseline: Median (nMad),"3.5 mg/kg, day 28",499
same,Tumor volume changes from baseline: Median (nMad),3.5 mg/kg; day 19,32 (207.6)
same,Tumor volume changes from baseline: Median (nMad),3.5 mg/kg; day 22,41 (108.2)
same,Tumor volume changes from baseline: Median (nMad),3.5 mg/kg; day 25,180 (100.8)
same,Tumor volume changes from baseline: Median (nMad),3.5 mg/kg; day 28,499 (324.7)
same,Average body weight change in % per mouse at nadir,[2],−4.2%
same,Biological interpretation,[2],highly active
same,Drug death,[2],0/7
same,Regressions Complete,[2],0/7
same,Regressions Partial,[2],7/7
same,Tumor free survivors at day 120,[2],0/7
same,day of nadir,[2],16 days
same,Biological interpretation,[3],Highly Active
same,ΔT/ΔC in % (day 22),[3],<0%
same,PR,5.6 mg/kg per injection IV days 15; 19,100%
same,Tumor volume changes from baseline: Median (nMad),"5.6 mg/kg, day 19",−31
same,Tumor volume changes from baseline: Median (nMad),"5.6 mg/kg, day 22",−126
same,Tumor volume changes from baseline: Median (nMad),"5.6 mg/kg, day 25",−157
same,Tumor volume changes from baseline: Median (nMad),"5.6 mg/kg, day 28",−157
same,Tumor volume changes from baseline: Median (nMad),5.6 mg/kg; day 19,−31 (87.5)
same,Tumor volume changes from baseline: Median (nMad),5.6 mg/kg; day 22,−126 (86)
same,Tumor volume changes from baseline: Median (nMad),5.6 mg/kg; day 25,−157 (81.5)
same,Tumor volume changes from baseline: Median (nMad),5.6 mg/kg; day 28,−157 (81.5)
same,Tumor volume changes from baseline: Median (nMad),5.6 mg/kg; day 32,−128 (112.7)
same,Tumor volume changes from baseline: Median (nMad),5.6 mg/kg; day 35,−157 (112.7)
same,Average body weight change in % per mouse at nadir,[4],−6.3%
same,Biological interpretation,[4],highly active
same,Drug death,[4],0/7
same,Regressions Complete,[4],0/7
same,Regressions Partial,[4],7/7
same,Tumor free survivors at day 120,[4],0/7
same,day of nadir,[4],16 days
same,Biological interpretation,[5],Highly Active
same,ΔT/ΔC in % (day 22),[5],<0%
same,PR,9 mg/kg per injection IV days 15; 19,100%
same,Tumor volume changes from baseline: Median (nMad),"9 mg/kg, day 19",25
same,Tumor volume changes from baseline: Median (nMad),"9 mg/kg, day 22",−137
same,Tumor volume changes from baseline: Median (nMad),"9 mg/kg, day 25",−227
same,Tumor volume changes from baseline: Median (nMad),"9 mg/kg, day 28",−227
same,Tumor volume changes from baseline: Median (nMad),9 mg/kg; day 19,25 (37.1)
same,Tumor volume changes from baseline: Median (nMad),9 mg/kg; day 22,−137 (60.8)
same,Tumor volume changes from baseline: Median (nMad),9 mg/kg; day 25,−227 (100.8)
same,Tumor volume changes from baseline: Median (nMad),9 mg/kg; day 28,−227 (100.8)
same,Tumor volume changes from baseline: Median (nMad),9 mg/kg; day 32,−231 (78.6)
same,Tumor volume changes from baseline: Median (nMad),9 mg/kg; day 35,−231 (78.6)
same,Average body weight change in % per mouse at nadir,[6],−7.1%
same,Biological interpretation,[6],highly active
same,Drug death,[6],0/7
same,Regressions Complete,[6],6/7
same,Regressions Partial,[6],7/7
same,Tumor free survivors at day 120,[6],3/7
same,day of nadir,[6],20 days
same,Biological interpretation,[7],Highly Active
same,ΔT/ΔC in % (day 22),[7],<0%
same,Tumor volume changes from baseline: Median (nMad),"14.5 mg/kg, day 19",−108
same,Tumor volume changes from baseline: Median (nMad),"14.5 mg/kg, day 22",−203
same,Tumor volume changes from baseline: Median (nMad),"14.5 mg/kg, day 25",−221
same,Tumor volume changes from baseline: Median (nMad),"14.5 mg/kg, day 28",−221
same,Tumor volume changes from baseline: Median (nMad),14.5 mg/kg; day 19,−108 (91.9)
same,Tumor volume changes from baseline: Median (nMad),14.5 mg/kg; day 22,−203 (87.5)
same,Tumor volume changes from baseline: Median (nMad),14.5 mg/kg; day 25,−221 (81.5)
same,Tumor volume changes from baseline: Median (nMad),14.5 mg/kg; day 28,−221 (81.5)
same,Tumor volume changes from baseline: Median (nMad),14.5 mg/kg; day 32,−221 (87.5)
same,Tumor volume changes from baseline: Median (nMad),14.5 mg/kg; day 35,−221 (87.5)
same,Tumor volume changes from baseline: Median (nMad),14.5 mg/kg; day 39,−221 (108.2)
same,Tumor volume changes from baseline: Median (nMad),14.5 mg/kg; day 41,−221 (140.8)
same,Tumor volume changes from baseline: Median (nMad),14.5 mg/kg; day 43,−221 (140.8)
same,Tumor volume changes from baseline: Median (nMad),14.5 mg/kg; day 45,−144 (222.4)
same,antitumor activity compared with docetaxel,conclusion of example 3,more also active than docetaxel
